pIC50: −log10 of the molar value.
What follows are compounds tested against recombinant PIM-1 (Homo sapiens, UniProt P11309) (assay: PIM-1 kinase assay (radiometric, 15 uM ATP, DMSO 4%)). Details: Table 1; % inhibition at the high dose (2 micromolar) in a single screening assay; 15 μM ATP.
Assay type: biochemical
Procedure: The following procedure was used to assay the PIM-1 kinase activity of compounds of the invention. Other methods for assaying PIM-1 and other PIM kinases, as well as methods to assay for activity against the various kinases in FIG. 1, are known in the art.
(specific activity approx. 500 cpm/pmol), DMSO 4% and test inhibitor compound at the required concentration. The reaction was initiated by the addition of the Magnesium ATP mixture. After 40 min incubation at 23° C., the reactions were quenched by the addition of 100 ul 0.75% Phosphoric acid, and the labeled peptide collected by filtration through a phosphocellulose filter plate. The plate was washed 4 times with 0.075% phosphoric acid (100 ul per well) and then, after the addition of scintillation fluid (20 ul per well), the counts were measured by a scintillation counter.

Sequence of recombinant PIM-1 (P11309 whole entry): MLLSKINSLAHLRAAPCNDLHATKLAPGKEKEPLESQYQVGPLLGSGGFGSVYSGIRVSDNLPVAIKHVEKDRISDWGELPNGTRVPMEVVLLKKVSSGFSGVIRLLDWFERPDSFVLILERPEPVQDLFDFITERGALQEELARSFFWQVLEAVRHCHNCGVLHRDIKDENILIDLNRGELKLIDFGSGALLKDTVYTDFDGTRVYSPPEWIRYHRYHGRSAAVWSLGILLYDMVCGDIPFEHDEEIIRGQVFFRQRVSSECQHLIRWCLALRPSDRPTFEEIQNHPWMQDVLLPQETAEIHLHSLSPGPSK

Row | Compound | inhibition at 2 µM
1 | CN1CCC(N(C)C(=O)c2cc(-c3ccc(/C=C4/C(=O)Nc5ccc(F)cc54)o3)ccc2Cl)C1 (stereo not drawn) [Compound 72] | 37.1%
2 | O=C1Nc2ccc(F)cc2/C1=C\c1ccc(-c2ccc(Cl)c(C(=O)NCCN3CCCC3)c2)o1 [Compound 73] | 20.9%
3 | CCN(CC)CCNC(=O)c1cc(-c2ccc(/C=C3/C(=O)Nc4ccc(F)cc43)o2)ccc1Cl [Compound 74] | 15.6%
4 | CN(C)C1CCN(C(=O)c2cc(-c3ccc(/C=C4/C(=O)Nc5ccc(F)cc54)o3)ccc2Cl)CC1 [Compound 75] | 27.8%
5 | CN1CCCCC1CNC(=O)c1cc(-c2ccc(/C=C3/C(=O)Nc4ccc(F)cc43)o2)ccc1Cl (stereo not drawn) [Compound 76] | 15.7%
6 | O=C1Nc2ccc(F)cc2/C1=C\c1ccc(-c2ccc(Cl)c(C(=O)N3CCCCC3)c2)o1 [Compound 77] | -17%
7 | O=C1Nc2ccccc2/C1=C\c1ccc(-c2cc(C(=O)NCCN3CCCC3)ccc2F)o1 [Compound 78] | 88.3%
8 | O=C1Nc2ccccc2/C1=C\c1ccc(-c2cc(F)cc(C(=O)NCCN3CCCC3)c2)o1 [Compound 79] | 43.3%
9 | CCN(CC)CCNC(=O)c1ccc(-c2ccc(/C=C3/C(=O)Nc4ccc(F)cc43)o2)cc1 [Compound 80] | 94.2%
10 | O=C1Nc2ccc(F)cc2/C1=C\c1ccc(-c2ccc(C(=O)NCCN3CCCC3)cc2)o1 [Compound 81] | 94.8%
11 | Cc1cnc(CNC(=O)c2ccc(-c3ccc(/C=C4/C(=O)Nc5ccc(F)cc54)o3)cc2)cn1 [Compound 82] | 26.6%
12 | CN1CCC(N(C)C(=O)c2ccc(-c3ccc(/C=C4/C(=O)Nc5ccc(F)cc54)o3)cc2)C1 (stereo not drawn) [Compound 83] | 54.8%
13 | CCN1CCCC1CNC(=O)c1ccc(-c2ccc(/C=C3/C(=O)Nc4ccc(F)cc43)o2)cc1 (stereo not drawn) [Compound 84] | 91.3%
14 | CN1CCCC(NC(=O)c2ccc(-c3ccc(/C=C4/C(=O)Nc5ccc(F)cc54)o3)cc2)C1 (stereo not drawn) [Compound 85] | 84.5%
15 | CN1CCCCC1CNC(=O)c1ccc(-c2ccc(/C=C3/C(=O)Nc4ccc(F)cc43)o2)cc1 (stereo not drawn) [Compound 86] | 90.6%
16 | CN(C)C1CCN(C(=O)c2ccc(-c3ccc(/C=C4/C(=O)Nc5ccc(F)cc54)o3)cc2)CC1 [Compound 87] | 51.9%
17 | O=C1Nc2ccc(F)cc2/C1=C\c1cc(-c2cccc(C(=O)NCCN3CCCC3)c2)co1 [Compound 88] | 9%
18 | CN1CCCC(NC(=O)c2cccc(-c3coc(/C=C4/C(=O)Nc5ccc(F)cc54)c3)c2)C1 (stereo not drawn) [Compound 89] | 6.1%
19 | CCN1CCCC1CNC(=O)c1cccc(-c2coc(/C=C3/C(=O)Nc4ccc(F)cc43)c2)c1 (stereo not drawn) [Compound 90] | 17.1%
20 | CN1CCC(N(C)C(=O)c2cccc(-c3coc(/C=C4/C(=O)Nc5ccc(F)cc54)c3)c2)C1 (stereo not drawn) [Compound 91] | 2.87%
21 | Cn1cncc1CNC(=O)c1cccc(-c2coc(/C=C3/C(=O)Nc4ccc(F)cc43)c2)c1 [Compound 92] | 12.7%
22 | CN1CCCCC1CNC(=O)c1cccc(-c2coc(/C=C3/C(=O)Nc4ccc(F)cc43)c2)c1 (stereo not drawn) [Compound 93] | 9.42%
23 | CCN(CC)CCNC(=O)c1cccc(-c2coc(/C=C3/C(=O)Nc4ccc(F)cc43)c2)c1 [Compound 94] | 11.5%
24 | O=C1Nc2ccc(F)cc2/C1=C\c1cc(-c2cccc(C(=O)NCc3ccncc3)c2)co1 [Compound 95] | -19.1%
25 | CN(C)C1CCN(C(=O)c2cccc(-c3coc(/C=C4/C(=O)Nc5ccc(F)cc54)c3)c2)CC1 [Compound 96] | 10.8%

Row | Compound | inhibition at 2 µM
26 | O=C1Nc2c(F)cccc2/C1=C\c1ccc(-c2ccc(Cl)c(C(=O)NCCN3CCCC3)c2)o1 [Compound 104] | -5.3%
27 | O=C1Nc2c(Cl)cccc2/C1=C\c1ccc(-c2ccc(Cl)c(C(=O)NCCN3CCCC3)c2)o1 [Compound 105] | -16.7%
28 | O=C1Nc2ccc(Cl)cc2/C1=C\c1ccc(-c2ccc(Cl)c(C(=O)NCCN3CCCC3)c2)o1 [Compound 106] | 22.2%
29 | Cc1cnc(CNC(=O)c2cccc(-c3ccc(/C=C4/C(=O)Nc5ccc(Cl)cc54)o3)c2)cn1 [Compound 107] | 21%
30 | CN1CCCC(NC(=O)c2cccc(-c3ccc(/C=C4/C(=O)Nc5ccc(Cl)cc54)o3)c2)C1 (stereo not drawn) [Compound 111] | 42.6%
31 | CN(C)C1CCN(C(=O)c2cccc(-c3ccc(/C=C4/C(=O)Nc5ccc(Cl)cc54)o3)c2)CC1 [Compound 113] | 38.1%
32 | CN1CCN(C(=O)c2cccc(-c3ccc(/C=C4/C(=O)Nc5ccc(Cl)cc54)o3)c2)CC1 [Compound 114] | 23%
33 | O=C1Nc2ccc(Cl)cc2/C1=C\c1ccc(-c2cccc(C(=O)NCc3ccccn3)c2)o1 [Compound 117] | 19.2%
34 | Cn1ccnc1CNC(=O)c1cccc(-c2ccc(/C=C3/C(=O)Nc4ccc(Cl)cc43)o2)c1 [Compound 119] | 37%
35 | CC1CCN(CCCNC(=O)c2cccc(-c3ccc(/C=C4/C(=O)Nc5ccc(Cl)cc54)o3)c2)CC1 [Compound 121] | 25.2%
36 | CC1CCCN(CCCNC(=O)c2cccc(-c3ccc(/C=C4/C(=O)Nc5ccc(Cl)cc54)o3)c2)C1 (stereo not drawn) [Compound 122] | 39.3%
37 | CN(C)CCCOc1ccc(-c2ccc(/C=C3/C(=O)Nc4ccccc43)o2)cn1 [Compound 125] | 41.5%
38 | CN1CCN(c2ccc(-c3ccc(/C=C4/C(=O)Nc5ccccc54)o3)cn2)CC1 [Compound 126] | 19.5%
39 | O=C1Nc2ccccc2/C1=C\c1ccc(-c2ccc(C(=O)NCCN3CCCC3)nc2)o1 [Compound 128] | 27.2%
40 | CN1CCCC(NC(=O)c2ccc(-c3ccc(/C=C4/C(=O)Nc5ccccc54)o3)cn2)C1 (stereo not drawn) [Compound 129] | 1.44%
41 | CCN1CCCC1CNC(=O)c1ccc(-c2ccc(/C=C3/C(=O)Nc4ccccc43)o2)cn1 (stereo not drawn) [Compound 130] | 24.3%
42 | CN1CCC(N(C)C(=O)c2ccc(-c3ccc(/C=C4/C(=O)Nc5ccccc54)o3)cn2)C1 (stereo not drawn) [Compound 131] | 5.08%
43 | CN1CCCCC1CNC(=O)c1ccc(-c2ccc(/C=C3/C(=O)Nc4ccccc43)o2)cn1 (stereo not drawn) [Compound 133] | 7.61%
44 | CCN(CC)CCNC(=O)c1ccc(-c2ccc(/C=C3/C(=O)Nc4ccccc43)o2)cn1 [Compound 134] | 32.4%
45 | O=C1Nc2ccccc2/C1=C\c1ccc(-c2ccc(C(=O)NCc3ccncc3)nc2)o1 [Compound 135] | 43.6%
46 | CN1CCN(C(=O)c2ccc(-c3ccc(/C=C4/C(=O)Nc5ccccc54)o3)cn2)CC1 [Compound 136] | 15.2%
47 | CN1CCCN(C(=O)c2ccc(-c3ccc(/C=C4/C(=O)Nc5ccccc54)o3)cn2)CC1 [Compound 137] | 20.6%
48 | CN(C)C1CCN(C(=O)c2ccc(-c3ccc(/C=C4/C(=O)Nc5ccccc54)o3)cn2)CC1 [Compound 138] | 30.5%
49 | Cc1cc(NCCN2CCCC2)c2cccc(-c3ccc(/C=C4/C(=O)Nc5ccc(Cl)cc54)o3)c2n1 [Compound 139] | -23.4%

Same assay, conditions: Table 1; given for compounds with IC50 at or below 2 micromolar; 15 uM ATP; read-out: PIM-1 IC50

Row | Compound | pIC50
50 | O=C1Nc2ccccc2/C1=C\c1ccc(-c2cc(C(=O)NCCN3CCCC3)ccc2F)o1 [Compound 78] | > 6.00
51 | O=C1Nc2ccccc2/C1=C\c1ccc(-c2cc(F)cc(C(=O)NCCN3CCCC3)c2)o1 [Compound 79] | > 5.70
52 | CCN(CC)CCNC(=O)c1ccc(-c2ccc(/C=C3/C(=O)Nc4ccc(F)cc43)o2)cc1 [Compound 80] | > 6.00
53 | O=C1Nc2ccc(F)cc2/C1=C\c1ccc(-c2ccc(C(=O)NCCN3CCCC3)cc2)o1 [Compound 81] | > 6.00
54 | CN1CCC(N(C)C(=O)c2ccc(-c3ccc(/C=C4/C(=O)Nc5ccc(F)cc54)o3)cc2)C1 (stereo not drawn) [Compound 83] | > 6.00
55 | CCN1CCCC1CNC(=O)c1ccc(-c2ccc(/C=C3/C(=O)Nc4ccc(F)cc43)o2)cc1 (stereo not drawn) [Compound 84] | > 6.00
56 | CN1CCCC(NC(=O)c2ccc(-c3ccc(/C=C4/C(=O)Nc5ccc(F)cc54)o3)cc2)C1 (stereo not drawn) [Compound 85] | > 5.70
57 | CN1CCCCC1CNC(=O)c1ccc(-c2ccc(/C=C3/C(=O)Nc4ccc(F)cc43)o2)cc1 (stereo not drawn) [Compound 86] | > 6.00
58 | CN(C)C1CCN(C(=O)c2ccc(-c3ccc(/C=C4/C(=O)Nc5ccc(F)cc54)o3)cc2)CC1 [Compound 87] | > 5.70
59 | CCN(CC)CCNC(=O)c1ccc(Cl)c(-c2ccc(/C=C3/C(=O)Nc4ccc(F)cc43)o2)c1 [Compound 97] | > 6.00
60 | CN1CCC(N(C)C(=O)c2ccc(Cl)c(-c3ccc(/C=C4/C(=O)Nc5ccc(F)cc54)o3)c2)C1 (stereo not drawn) [Compound 99] | > 6.00
61 | CCN1CCCC1CNC(=O)c1ccc(Cl)c(-c2ccc(/C=C3/C(=O)Nc4ccc(F)cc43)o2)c1 (stereo not drawn) [Compound 100] | > 6.00
62 | CN1CCCC(NC(=O)c2ccc(Cl)c(-c3ccc(/C=C4/C(=O)Nc5ccc(F)cc54)o3)c2)C1 (stereo not drawn) [Compound 101] | > 5.70
63 | CN1CCCCC1CNC(=O)c1ccc(Cl)c(-c2ccc(/C=C3/C(=O)Nc4ccc(F)cc43)o2)c1 (stereo not drawn) [Compound 102] | > 5.70
64 | CN(C)C1CCN(C(=O)c2ccc(Cl)c(-c3ccc(/C=C4/C(=O)Nc5ccc(F)cc54)o3)c2)CC1 [Compound 103] | > 5.70
65 | O=C1Nc2ccc(Cl)cc2/C1=C\c1ccc(-c2cccc(C(=O)NCc3ccncc3)c2)o1 [Compound 108] | > 6.00
66 | CN1CCC(N(C)C(=O)c2cccc(-c3ccc(/C=C4/C(=O)Nc5ccc(Cl)cc54)o3)c2)C1 (stereo not drawn) [Compound 109] | > 5.70
67 | Cn1cncc1CNC(=O)c1cccc(-c2ccc(/C=C3/C(=O)Nc4ccc(Cl)cc43)o2)c1 [Compound 110] | > 6.00
68 | CCN1CCCC1CNC(=O)c1cccc(-c2ccc(/C=C3/C(=O)Nc4ccc(Cl)cc43)o2)c1 (stereo not drawn) [Compound 112] | > 6.00
69 | O=C1Nc2ccc(Cl)cc2/C1=C\c1ccc(-c2cccc(C(=O)NCc3cccnc3)c2)o1 [Compound 116] | > 6.00
70 | CN(C)CCNC(=O)c1cccc(-c2ccc(/C=C3/C(=O)Nc4ccc(Cl)cc43)o2)c1 [Compound 118] | > 6.00
71 | CCN(CC)CCNC(=O)c1cccc(-c2ccc(/C=C3/C(=O)Nc4ccc(Cl)cc43)o2)c1 [Compound 120] | > 5.70
72 | O=C1Nc2ccc(Cl)cc2/C1=C\c1ccc(-c2cccc(C(=O)NCCCn3ccnc3)c2)o1 [Compound 123] | > 6.00
73 | O=C1Nc2ccc(Cl)cc2/C1=C\c1ccc(-c2cccc(C(=O)NCCCN3CCOCC3)c2)o1 [Compound 124] | > 6.00
74 | O=C1Nc2ccccc2/C1=C\c1ccc(-c2ccc(C(=O)O)nc2)o1 [Compound 127] | > 6.00
75 | Cn1cncc1CNC(=O)c1ccc(-c2ccc(/C=C3/C(=O)Nc4ccccc43)o2)cn1 [Compound 132] | > 6.00

From patent publication US20120190669A1, “OXINDOLE COMPOUNDS” (CYLENE PHARMACEUTICALS, INC., priority 2008, published 2012)
